Holding throughout (format): in vivo
Experiment [1] concerns Boophilus microplus larvae. As to the kind of experiment: Study of the activity on Boophilus microplus larvae (spraying tower, % mortality). The settings on record: for activity on Boophilus microplus larvae (conclusion): 100, 10 and 1 ppm; for mortality at 1 ppm / mortality at 10 ppm / mortality at 100 ppm: Rhipicephalus microplus, in Bos taurus, larvae, after 24 hours. The method, then: C. Study of the acaricide activity in animals
(a) Study of the activity on Boophilus microplus larvae
The substance under test was dissolved in a mixture of dimethylformamide, emulsifiers and Arcopal so as to obtain a concentrate emulsifying at 10%. This concentrate was diluted with water to obtain solutions of the desired concentrations of 100, 10 and 1 ppm. Using a spraying tower, the various solutions were sprayed over the larvae of tropical cattle ticks of Boophilus microplus type, and after 24 hours, the percentage of mortality was determined by counting the living and dead larvae.

The test system of experiment [2] is Boophilus microplus females. As to the kind of experiment: Study of the activity on inhibition of the reproduction of Boophilus microplus ticks. As to conditions: for activity on inhibition of reproduction of Boophilus microplus ticks (conclusion): 100 to 0.19 ppm; for inhibition at 0.19 ppm / inhibition at 0.38 ppm / inhibition at 0.75 ppm / inhibition at 1.5 ppm / inhibition at 3.1 ppm / inhibition at 6.2 ppm / inhibition at 12.5 ppm / inhibition at 25 ppm / inhibition at 50 ppm / inhibition at 100 ppm: Rhipicephalus microplus, 5 min, females submerged for 5 minutes. The method, then: The substance under test was dissolved in a mixture of dimethylformamide, emulsifiers and Arcopal so as to obtain a concentrate emulsifying at 10%. This concentrate was diluted with water to obtain solutions of the desired concentrations of 100, 10 and 1 ppm. Using a spraying tower, the various solutions were sprayed over the larvae of tropical cattle ticks of Boophilus microplus type, and after 24 hours, the percentage of mortality was determined by counting the living and dead larvae. The results are as follows:
(b) Study of the activity on inhibition of the reproduction of Boophilus microplus ticks
Boophilus microplus females, ready to lay eggs, were submerged for 5 minutes in the solutions prepared above and then they were placed in a heated chamber to lay the eggs. […]

Another experiment has as its system house-fly. As to the kind of experiment: Study of lethal activity on the house-fly (topical application). The settings on record: four-day old female house-flies, topical 1 μl acetone solution on dorsal thorax, mortality at 24 hours; without synergist or with piperonyl butoxide (table does not say which). The method, then:
A. Study of lethal activity on the house-fly
The insects tested were four-day old female house-flies and the test was carried out by topical application of 1 μl of acetone solution on the dorsal thorax of the insects using an Arnold micromanipulator. 50 individuals per treatment were used and a mortality check was carried out 24 hours after treatment. The tests were carried out without a synergist or with the addition of piperonyl butoxide (10 parts of synergist per 1 part of test compound). The experimental results, given in the following table, are expressed in LD 50 (in nanograms) necessary to kill 50% of the insects: […]

The next experiment concerns Aphis cracivora. The experiment is described as follows: Study of the lethal effect on Aphis cracivora (contact-injection method, treated broad-bean leaf). As to conditions: 7-day old adults, contact with treated leaf for one hour, mortality after 24 hours. The method, then: B. Study of the lethal effect on Aphis cracivora
7-day old adults were used and 10 aphids per concentration used were employed. A contact-injection method was used and the treatment of a broad-bean leaf was carried out with a Fisher gun, the leaf being placed in a plastic Petri dish on a circle of damp paper. The treatment was carried out with 2 ml of acetone solution of the product under test (1 ml per side of leaf). The infestation by the insects was brought about after drying the leaf and the insects were kept in contact with the leaf for one hour. Insects were placed on untreated leaves and the mortality was checked after 24 hours.

Converted amounts (≈) assume the structure as drawn.

As a reminder, the mortality is the share of the test organisms that died. Lower therefore signals more survivors. In general, inhibition refers to the percentage by which the read-out fell short of the control. Read a low inhibition as a response near the control. A word on the LC50: it is the concentration that kills 50% of the test population. The low end stands for greater toxicity, the high end for lower toxicity. On to `C[C@@H](OC(=O)[C@@H]1[C@@H](/C=C(/c2ccc(Cl)cc2)C(F)(F)F)C1(C)C)c1cccc(Oc2ccccc2)n1` [Example 3, 1-(6-phenoxy-2-pyridyl)-ethyl [1R-[1α(R*), 3β]]2,2-dimethyl-3-[(ΔZ)-2-(4-chlorophenyl)-3,3,3-trifluoro-1-propenyl]-cyclopropane carboxylate], for which, in experiment [1], the “activity on Boophilus microplus larvae (conclusion)” value is given as “remarkable activity”, the mortality at 1 ppm is 100%, the mortality at 10 ppm turned out to be 100% and the mortality at 100 ppm was determined as 100%. Moreover, in experiment [2], the “activity on inhibition of reproduction of Boophilus microplus ticks (conclusion)” value (“activity on inhibition” for short) was “remarkable activity”, 0.19 ppm produced 100% inhibition, the inhibition at 0.38 ppm is 100% and the inhibition at 0.75 ppm amounted to 100%. In experiment [2], testing at 1.5 ppm gave an inhibition of 100%, 3.1 ppm produced 100% inhibition, testing at 6.2 ppm gave an inhibition of 100% and the inhibition at 12.5 ppm came to 100%. Moreover, in experiment [2], the inhibition at 25 ppm was found to be 100%, the inhibition at 50 ppm is 100% and at 100 ppm the inhibition was 100%. Moreover, the “LD 50” value in the experiment with house-fly worked out at 19.6 ng/insect. In the experiment with Aphis cracivora, this molecule came in with an LC50 of 1.34 µg/mL (≈ 2.6 µM).

Turning to `CC(OC(=O)[C@@H]1[C@@H](/C=C(/c2ccc(Cl)cc2)C(F)(F)F)C1(C)C)c1cccc(Oc2ccccc2)n1` (stereo partly drawn) [Example 5, 1-(6-phenoxy-2-pyridyl)-ethyl [1R-(1α,(RS), 3β]] 2,2-dimethyl-3-[(ΔZ)-2-(4-chlorophenyl)-3,3,3-trifluoro-1-propenyl]-cyclopropane carboxylate], in experiment [1], the “activity on Boophilus microplus larvae (conclusion)” value is “remarkable activity”, the mortality at 1 ppm was found to be 100% and the mortality at 10 ppm worked out at 100%. For the same molecule, in experiment [2], the “activity on inhibition” value is listed as “remarkable activity”, the inhibition at 0.38 ppm stood at 85%, the inhibition at 0.75 ppm was determined as 100% and the inhibition at 1.5 ppm came out at 100%. Moreover, in experiment [2], testing at 3.1 ppm gave an inhibition of 100%, 6.2 ppm produced 100% inhibition, the inhibition at 12.5 ppm amounted to 100% and the inhibition at 25 ppm worked out at 100%. Also, in experiment [2], the inhibition at 50 ppm was 100% and the inhibition at 100 ppm is 100%.

For `CC1(C)[C@H](/C=C(/c2ccc(Cl)cc2)C(F)(F)F)[C@H]1C(=O)O[C@H](C#N)c1ccc(F)c(Oc2ccccc2)c1` [Example 4, α-Cyano-4-fluoro-3-phenoxy-benzyl [1R-[1α(S*)-3β]-2,2-dimethyl-3-[(ΔZ) 2-(4-chlorophenyl)-3,3,3-trifluoro-1-propenyl]-cyclopropane carboxylate], in experiment [1], the “activity on Boophilus microplus larvae (conclusion)” value is listed as “remarkable activity”, the mortality at 1 ppm came to 100%, the mortality at 10 ppm is 100% and the mortality at 100 ppm was 100%. Besides, in experiment [2], the “activity on inhibition” value is given as “remarkable activity”, 0.19 ppm produced 100% inhibition, 0.38 ppm produced 100% inhibition and the inhibition at 0.75 ppm was found to be 100%. In experiment [2], this molecule returned an inhibition at 1.5 ppm of 100%, an inhibition at 3.1 ppm of 100%, an inhibition at 6.2 ppm of 100% and an inhibition at 12.5 ppm of 100%. For the same molecule, in experiment [2], the inhibition at 25 ppm came out at 100%, the inhibition at 50 ppm was determined as 100% and the inhibition at 100 ppm turned out to be 100%. In the experiment with house-fly, the “LD 50” value came to 5.3 ng/insect. In the experiment with Aphis cracivora, the LC50 turned out to be 0.6 µg/mL (≈ 1.1 µM).

For the origin of these results see patent US4920231A, “Process of braking triflouromethyl compounds” (Roussel Uclaf, priority 1988, dated 1990).
